From ChEMBL document CHEMBL1250518, “Nonsteroidal dissociated glucocorticoid agonists containing azaindoles as steroid A-ring mimetics” (J Med Chem, 2010)

How the values were obtained:
[1] = Half life in Sprague-Dawley rat at 5 mg/kg, iv; format: ADME, organism-based; parameters: dose 5 mg/kg, route intravenous; details: in vivo
[2] = tested on: Mus musculus; assay: Toxicity in collagen and Freund's complete adjuvant-induced B10.RIII mouse arthritis model assessed as increase of triglyceride level at 30 mg/kg, po qd for 5 weeks; format: organism-based; parameters: dose 30 mg/kg, route oral; details: in vivo, 840 h
[3] = Cmax in Sprague-Dawley rat at 30 mg/kg, po; format: ADME, organism-based; parameters: dose 30 mg/kg, route oral; details: in vivo
[4] = target: T1, Glucocorticoid receptor (Homo sapiens, UniProt P04150); assay: Binding affinity to glucocorticoid receptor expressed in baculovirus-infected insect cells using tetramethylrhodamine labeled Dexamethasone by fluorescence polarization microplate assay
T1 sequence (P04150 whole entry): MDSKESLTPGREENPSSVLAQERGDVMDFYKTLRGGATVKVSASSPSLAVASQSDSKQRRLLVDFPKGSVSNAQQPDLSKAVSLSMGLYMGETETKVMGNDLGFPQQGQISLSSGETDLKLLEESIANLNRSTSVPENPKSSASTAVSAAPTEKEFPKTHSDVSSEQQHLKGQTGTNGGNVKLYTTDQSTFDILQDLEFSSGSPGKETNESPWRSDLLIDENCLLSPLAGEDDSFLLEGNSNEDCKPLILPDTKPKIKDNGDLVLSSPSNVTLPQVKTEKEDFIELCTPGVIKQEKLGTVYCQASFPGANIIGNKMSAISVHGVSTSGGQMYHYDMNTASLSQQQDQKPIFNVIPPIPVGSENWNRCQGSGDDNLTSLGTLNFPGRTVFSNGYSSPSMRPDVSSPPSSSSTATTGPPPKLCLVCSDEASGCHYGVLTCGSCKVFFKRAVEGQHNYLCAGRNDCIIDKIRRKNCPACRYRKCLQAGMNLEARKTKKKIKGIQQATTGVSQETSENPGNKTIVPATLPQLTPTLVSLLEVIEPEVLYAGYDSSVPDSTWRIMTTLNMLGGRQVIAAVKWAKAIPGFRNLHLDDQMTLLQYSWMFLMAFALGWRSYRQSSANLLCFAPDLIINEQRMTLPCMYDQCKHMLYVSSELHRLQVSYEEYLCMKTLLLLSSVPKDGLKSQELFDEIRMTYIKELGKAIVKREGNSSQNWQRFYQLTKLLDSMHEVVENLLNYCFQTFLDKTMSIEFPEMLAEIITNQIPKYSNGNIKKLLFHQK

[5] = tested on: Rattus norvegicus; assay: Oral bioavailability in Sprague-Dawley rat at 30 mg/kg; format: ADME, organism-based; details: in vivo
[6] = tested on: Mus musculus; assay: Antiinflammatory activity in po dosed BALB/c mouse assessed as reduction of LPS-induced plasma TNFalpha level administered 1 hr before LPS challenge by ELISA; format: functional
[7] = target: T1, Glucocorticoid receptor; assay: Transactivation activity at glucocorticoid receptor in HFF assessed as induction of aromatase activity after 18 to 24 hrs by ELISA; format: cell-based
[8] = target: T2, Progesterone receptor (Homo sapiens, UniProt P06401); assay: Binding affinity to progesterone receptor expressed in baculovirus-infected insect cells using tetramethylrhodamine labeled RU-486 by fluorescence polarization microplate assay
T2 sequence (P06401 whole entry): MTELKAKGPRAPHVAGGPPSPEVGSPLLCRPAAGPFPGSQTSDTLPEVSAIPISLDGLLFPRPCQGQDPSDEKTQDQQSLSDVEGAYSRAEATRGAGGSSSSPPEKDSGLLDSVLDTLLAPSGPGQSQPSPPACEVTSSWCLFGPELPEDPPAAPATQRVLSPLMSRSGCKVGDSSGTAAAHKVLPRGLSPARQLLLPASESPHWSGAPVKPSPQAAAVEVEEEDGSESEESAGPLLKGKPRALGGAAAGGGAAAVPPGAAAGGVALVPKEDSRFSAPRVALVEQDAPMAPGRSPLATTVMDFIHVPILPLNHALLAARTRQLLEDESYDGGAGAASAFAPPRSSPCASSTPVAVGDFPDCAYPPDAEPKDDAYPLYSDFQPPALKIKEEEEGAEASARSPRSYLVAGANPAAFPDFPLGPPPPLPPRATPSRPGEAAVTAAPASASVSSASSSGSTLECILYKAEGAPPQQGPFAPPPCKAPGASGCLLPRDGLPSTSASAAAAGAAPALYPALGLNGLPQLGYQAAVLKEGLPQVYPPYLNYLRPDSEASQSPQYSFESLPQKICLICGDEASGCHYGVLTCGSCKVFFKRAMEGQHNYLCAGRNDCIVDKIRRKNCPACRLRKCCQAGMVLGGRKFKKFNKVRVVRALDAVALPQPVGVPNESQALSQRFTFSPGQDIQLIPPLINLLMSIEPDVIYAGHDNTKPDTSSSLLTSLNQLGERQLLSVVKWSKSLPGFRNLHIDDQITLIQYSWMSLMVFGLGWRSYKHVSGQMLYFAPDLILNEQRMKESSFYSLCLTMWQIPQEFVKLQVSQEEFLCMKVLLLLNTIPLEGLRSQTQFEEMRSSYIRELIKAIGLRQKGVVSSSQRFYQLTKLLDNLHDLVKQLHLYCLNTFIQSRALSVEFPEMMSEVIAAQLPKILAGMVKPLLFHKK

[9] = tested on: Rattus norvegicus; assay: AUC (infinity) in Sprague-Dawley rat at 30 mg/kg, po; format: ADME, organism-based, Plasma; parameters: time infinity, dose 30 mg/kg, route oral; details: in vivo
[10] = tested on: Mus musculus; assay: Toxicity in collagen and Freund's complete adjuvant-induced B10.RIII mouse arthritis model assessed as increase of free fatty acids level at 30 mg/kg, po qd for 5 weeks; format: organism-based; parameters: dose 30 mg/kg, route oral; details: in vivo, 840 h
[11] = tested on: Mus musculus; assay: Toxicity in B10.RIII mouse assessed as increase of serum insulin level at 30 mg/kg, po qd for 5 weeks; format: organism-based; parameters: dose 30 mg/kg, route oral; details: in vivo, 840 h
[12] = tested on: Mus musculus; assay: Toxicity in B10.RIII mouse assessed as increase of body fat content at 30 mg/kg, po qd for 5 weeks; format: organism-based; parameters: dose 30 mg/kg, route oral; details: in vivo, 840 h

CC(C)(C[C@@](O)(Cc1cc2ccncc2[nH]1)C(F)(F)F)c1cc(F)ccc1O
half-life [1]: 111 min | Activity [2]: Non-toxic | Cmax [3]: 444 ng/mL | IC50 [4]: 2.1 nM | F [5]: 48% | ED50 [6]: < 0.3 mg/kg | EC50 [7]: 30 nM | IC50 [8]: 1200 nM | AUC [9]: 2236 ng·h/mL | Activity [10]: Non-toxic | Activity [11]: Non-toxic | Activity [12]: Non-toxic
